ChEMBL document CHEMBL3885861, “Open TG-GATES”
Where a name gives a salt, the structure may show the parent alone.

Organism: Rattus norvegicus
Test: Open TG-GATES - Regimen: Single
Format: toxicity, organism-based, Sprague-Dawley
Design: regimen Single, gender Male, age 6 weeks
Details: in vivo, ip, 800 mg/kg, route intraperitoneal injection, dose level High; for APTT / Bas / Eos / Fbg / Hb / Ht / Lym / MCH / MCHC / MCV / Mono / Neu / PT / Plat / RBC / Ret / WBC: tissue Blood; for KIDNEY_L / KIDNEY_R / KIDNEY_TOTAL: tissue Kidney; for LIVER: tissue Liver; for A/G / ALP / ALT / AST / BUN / CRE / Ca / Cl / DBIL / GLC / IP / K / LDH / Na / PL / RALB / TBIL / TC / TG / TP / gamma-GTP: tissue Plasma

## CCOC(=O)/C=C\C(=O)OCC [DIETHYL MALEATE]
3 h
  TERMINAL_BW: 200.3 g
  APTT: 17 s
  Bas: 0%
  Eos: 1.4%
  Fbg: 195.6 mg/dL
  Hb: 14.1 g/dL
  Ht: 42.3%
  Lym: 62.4%
  MCH: 21.3 pg
  MCHC: 33.4%
  MCV: 63.9 fL
  Mono: 7.8%
  Neu: 28.4%
  PT: 13.2 s
  Plat: 123.8 x10_4/uL
  RBC: 662.6 x10_4/ul
  Ret: 9.9%
  WBC: 59.8 x10_2/uL
  KIDNEY_L: 0.9 g
  KIDNEY_R: 0.9 g
  KIDNEY_TOTAL: 1.8 g
  LIVER: 7.9 g
  A/G: 1.7
  ALP: 764.4 IU/L
  ALT: 48.8 IU/L
  AST: 96.2 IU/L
  BUN: 19.2 mg/dL
  CRE: 0.5 mg/dL
  Ca: 10.7 mg/dL
  Cl: 105.2 meq/L
  DBIL: 0.01 mg/dL
  GLC: 218.6 mg/dL
  IP: 10.8 mg/dL
  K: 5.2 meq/L
  LDH: 209.4 IU/L
  Na: 136 meq/L
  PL: 101.8 mg/dL
  RALB: 3.5 g/dL
  TBIL: 0.5 mg/dL
  TC: 59.4 mg/dL
  TG: 20.2 mg/dL
  TP: 5.5 g/dL
  gamma-GTP: 1 IU/L
6 h
  TERMINAL_BW: 195.6 g
  APTT: 16.8 s
  Bas: 0%
  Eos: 0.8%
  Fbg: 206.2 mg/dL
  Hb: 14.2 g/dL
  Ht: 42.4%
  Lym: 71.8%
  MCH: 22.1 pg
  MCHC: 33.5%
  MCV: 65.9 fL
  Mono: 8.6%
  Neu: 18.8%
  PT: 12.2 s
  Plat: 126 x10_4/uL
  RBC: 644.2 x10_4/ul
  Ret: 10.4%
  WBC: 78.9 x10_2/uL
  KIDNEY_L: 0.9 g
  KIDNEY_R: 0.9 g
  KIDNEY_TOTAL: 1.8 g
  LIVER: 7.6 g
  A/G: 2
  ALP: 784.8 IU/L
  ALT: 53.2 IU/L
  AST: 101 IU/L
  BUN: 22 mg/dL
  CRE: 0.5 mg/dL
  Ca: 10.9 mg/dL
  Cl: 105.6 meq/L
  DBIL: 0.012 mg/dL
  GLC: 204 mg/dL
  IP: 10.2 mg/dL
  K: 5.4 meq/L
  LDH: 205 IU/L
  Na: 136.2 meq/L
  PL: 124.6 mg/dL
  RALB: 3.7 g/dL
  TBIL: 0.5 mg/dL
  TC: 77.6 mg/dL
  TG: 28.2 mg/dL
  TP: 5.6 g/dL
  gamma-GTP: 1 IU/L
9 h
  TERMINAL_BW: 191 g
  APTT: 16.8 s
  Bas: 0%
  Eos: 0.8%
  Fbg: 190.4 mg/dL
  Hb: 13.7 g/dL
  Ht: 40.9%
  Lym: 63.6%
  MCH: 21.5 pg
  MCHC: 33.5%
  MCV: 64 fL
  Mono: 8.6%
  Neu: 27.2%
  PT: 12.4 s
  Plat: 126 x10_4/uL
  RBC: 638 x10_4/ul
  Ret: 8.8%
  WBC: 90.6 x10_2/uL
  KIDNEY_L: 0.9 g
  KIDNEY_R: 0.9 g
  KIDNEY_TOTAL: 1.8 g
  LIVER: 7.1 g
  A/G: 2.3
  ALP: 702.8 IU/L
  ALT: 38.6 IU/L
  AST: 101.8 IU/L
  BUN: 19.2 mg/dL
  CRE: 0.4 mg/dL
  Ca: 10.4 mg/dL
  Cl: 106 meq/L
  DBIL: 0 mg/dL
  GLC: 195 mg/dL
  IP: 9.5 mg/dL
  K: 4.9 meq/L
  LDH: 134.8 IU/L
  Na: 137 meq/L
  PL: 115.6 mg/dL
  RALB: 3.6 g/dL
  TBIL: 0.5 mg/dL
  TC: 71.2 mg/dL
  TG: 15 mg/dL
  TP: 5.2 g/dL
  gamma-GTP: 2 IU/L
24 h
  TERMINAL_BW: 198.4 g
  APTT: 15.2 s
  Bas: 0%
  Eos: 0.8%
  Fbg: 183 mg/dL
  Hb: 13.2 g/dL
  Ht: 39.6%
  Lym: 79.2%
  MCH: 21.7 pg
  MCHC: 33.4%
  MCV: 65 fL
  Mono: 5.2%
  Neu: 15%
  PT: 11.7 s
  Plat: 122 x10_4/uL
  RBC: 609.6 x10_4/ul
  Ret: 8.5%
  WBC: 126.8 x10_2/uL
  KIDNEY_L: 0.9 g
  KIDNEY_R: 0.9 g
  KIDNEY_TOTAL: 1.8 g
  LIVER: 8.9 g
  A/G: 2.3
  ALP: 756.4 IU/L
  ALT: 34.8 IU/L
  AST: 67.6 IU/L
  BUN: 18 mg/dL
  CRE: 0.4 mg/dL
  Ca: 10.5 mg/dL
  Cl: 106.4 meq/L
  DBIL: 0.022 mg/dL
  GLC: 189.2 mg/dL
  IP: 7.2 mg/dL
  K: 5.2 meq/L
  LDH: 123 IU/L
  Na: 138.6 meq/L
  PL: 135.8 mg/dL
  RALB: 3.7 g/dL
  TBIL: 0.4 mg/dL
  TC: 69.4 mg/dL
  TG: 98 mg/dL
  TP: 5.3 g/dL
  gamma-GTP: 2 IU/L
